Active and inactive are the calls of the source. The rule behind the calls is not given here.
System: Lemna aequinoctialis
Assay: Induction of flowering in Lemna paucicostata 151 after 10 days
Format: functional, organism-based

Row | SMILES | Activity
1 | CC/C=C\C[C@@H]1[C@H](CC(=O)CCCCCCCCC(=O)O)O[C@]2(O)CC13C(=CC2=O)NC[C@@H]3O | Active
2 | CCCCC[C@@H]1[C@H](CC(=O)CCCCCCCCC(=O)O)O[C@]2(O)CC13C(=CC2=O)NC[C@@H]3O | inactive
3 | CC/C=C\C[C@@H]1[C@H](CC(=O)[C@H](O)CCCCCCCC(=O)O)O[C@]2(O)CC13C(=CC2=O)N(C)C[C@@H]3O | Active
4 | CCCCC[C@@H]1[C@H](CC(=O)C(O)CCCCCCCC(=O)O)O[C@]2(O)CC13C(=CC2=O)NC[C@@H]3O (some centres not stated) | Active
5 | CC/C=C\C[C@@H]1[C@H](CC(=O)[C@H](O)CCCCCCCC(=O)OC)O[C@]2(O)CC13C(=CC2=O)NC[C@@H]3O | Active
6 | CC/C=C\C[C@@H]1[C@H](CC(=O)[C@@H](O)CCCCCCCC(=O)OC)O[C@]2(O)CC13C(=CC2=O)NC[C@@H]3O | Active
7 | CC/C=C\C[C@@H]1[C@H](CC(=O)[C@@H](O)CCCCCCCC(=O)O)O[C@]2(O)CC13C(=CC2=O)N(C)C[C@@H]3O | Active

Reference: ChEMBL document CHEMBL1151691, “Structure and biological activity of novel FN analogs as flowering inducers” (Bioorg Med Chem, 2008)
